# Results as given in US20090023694A1, “Contraceptive” (GRUNENTHAL GMBH, priority 2006, published 2009).
# System: GABAA receptors
# Test: Influence on the binding of muscimol to GABAA receptors (rat brain)
# Settings: 5 nM [3H] muscimol, cerebral rat cortex membranes
# Procedure: The following tests for determining the influence of allopregnanolone, 3-α-OH-CMA and 3-β-OH-CMA on the binding of muscimol to GABAA receptors (in rats) are based on the publication of the experimental specifications of Snodgrass, S. R. (Nature, 1979, V273, p. 392-394). The corresponding disclosure is included herein as a reference and is part of the disclosure of the present application.
# Membrane preparations of cerebral rat cortex material were prepared. 5 nM [^3H] muscimol was used as a reference substance and 10 μM muscimol was used to determine the nonspecific binding. The substances ([^3H] muscimol, allopregnanolone) were each incubated at the receptor for 10 minutes at a temperature of approximately 4° C. The stock solution (5×10^−2 M) of allopregnanolone was prediluted in 75% DMSO at a ratio of 1:10 and was subsequently further diluted in 25% DMSO at a ratio of 1:5. The final concentration of allopregnanolone in the test was 1×10^−10 M, 1×10^−9 M, 1×10^−8 M, 1×10^−7 M, 1×10^−6 M and 1×10^−5 M respectively. The washing steps and the determination of radioactivity were carried out as previously described under point 1.
# The influence of 3-α-OH-CMA and 3-β-OH-CMA on the binding of muscimol to GABAA receptors (in rats) was determined in a similar manner to the method described previously. Instead of allopregnanolone, 3-α-OH-CMA or 3-β-OH-CMA were used.
smiles,measurement,setting,value
"CC(=O)O[C@]1(C(C)=O)CC[C@H]2[C@@H]3C=C(Cl)C4=C[C@H](O)CC[C@]4(C)[C@H]3CC[C@@]21C [3-α-OH-CMA, 3α-hydroxy-6-chloro-17α-acetoxy-4,6-pregnadien-20-one]",increase of binding of radioactively labelled muscimol,0.001 μM test substance,12%
"CC(=O)O[C@]1(C(C)=O)CC[C@H]2[C@@H]3C=C(Cl)C4=C[C@@H](O)CC[C@]4(C)[C@H]3CC[C@@]21C [3-β-OH-CMA, 3β-hydroxy-6-chloro-17α-acetoxy-4,6-pregnadien-20-one]",increase of binding of radioactively labelled muscimol,0.1 μM test substance,31%
"CC(=O)[C@H]1CC[C@H]2[C@@H]3CC[C@H]4C[C@H](O)CC[C@]4(C)[C@H]3CC[C@]12C [allopregnanolone, reference compound]",increase of binding of radioactively labelled muscimol,1 μM test substance,38%
